Assay results as given in patent US11051515B2, “3-acyl-benzamides and their use as herbicides” (Bayer Aktiengesellschaft, priority 2017, dated 2021).

Assays:
[1] = test system: SETVI; experiment: Pre-emergence action against SETVI; format: in vivo, Setaria viridis; details: pre-emergence, dosage 320 g/ha, scored visually after 3 weeks vs untreated controls
In short: (§1)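 Seeds sown in sandy loam in wood-fiber pots and covered with soil. Greenhouse growth; visual damage scored after 3 weeks versus untreated controls (100% = dead, 0% = like control).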

[2] = test system: POLCO; experiment: Pre-emergence action against POLCO; format: in vivo, Polygonum convolvulus; details: Dosage 320 g/ha, pre-emergence
In short: as §1

[3] = test system: ALOMY; experiment: Post-emergence action against ALOMY; format: in vivo, Alopecurus myosuroides; details: Dosage 80 g/ha, post-emergence
Experimental: (§2) Seeds of monocotyledonous and dicotyledonous weed and crop plants are laid out in sandy loam soil in wood-fiber pots, covered with soil and cultivated in a greenhouse under good growth conditions. 2 to 3 weeks after sowing, the test plants are treated at the one-leaf stage. The compounds of the invention, formulated in the form of wettable powders (WP) or as emulsion concentrates (EC), are then sprayed onto the green parts of the plants in the form of an aqueous suspension or emulsion at a water application rate equating to […], with addition of 0.2% wetting agent. After the test plants have been left to stand in the greenhouse under optimal growth conditions for about 3 weeks, the action of the preparations is assessed visually in comparison to untreated controls (herbicidal action in percent (%): 100% activity=the plants have died, 0% activity=like control plants). […] At the same time, inventive compounds leave Gramineae crops such as barley, wheat, rye, millet/Sorghum, corn or rice virtually undamaged when applied post-emergence, even at high active ingredient dosages. In addition, some substances are also harmless to dicotyledonous crops such as soya, cotton, oilseed rape, sugar beet or potatoes. Some of the compounds according to the invention have high selectivity and are therefore suitable for controlling unwanted vegetation in agricultural crops by the post-emergence method. The data of Tables B18 to B34 below illustrate, in an exemplary manner, the […] herbicidal action of the compounds according to the invention, the herbicidal activity being stated in percent.

[4] = test system: SETVI; experiment: Post-emergence action against SETVI; format: in vivo, Setaria viridis; details: post-emergence, dosage 80 g/ha, visual assessment about 3 weeks after treatment vs untreated controls
In short: (§3)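 Weeds grown in sandy loam in greenhouse, treated at one-leaf stage (2–3 weeks after sowing) with WP or EC formulations sprayed as aqueous suspension/emulsion at 600 to […] water with 0.2% wetting agent. Visual rating after about 3 weeks versus untreated controls, as % herbicidal action (100% = plants dead, 0% = like control).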

[5] = test system: ABUTH; experiment: Post-emergence action against ABUTH; format: in vivo, Abutilon theophrasti; details: post-emergence, dosage 80 g/ha, visual assessment about 3 weeks after treatment vs untreated controls
In short: as §3

[6] = test system: CYPES; experiment: Pre-emergence action against CYPES; format: in vivo, Cyperus esculentus; details: pre-emergence, dosage 320 g/ha, scored visually after 3 weeks vs untreated controls
In short: as §1

[7] = test system: PHBPU; experiment: Post-emergence action against PHBPU; format: in vivo, Pharbitis purpurea; details: post-emergence, dosage 80 g/ha
In short: as §3

[8] = test system: STEME; experiment: Post-emergence action against STEME; format: in vivo, Stellaria media; details: post-emergence, dosage 80 g/ha
In short: as §3

[9] = test system: VIOTR; experiment: Post-emergence action against VIOTR; format: in vivo, Viola tricolor; details: post-emergence, dosage 80 g/ha
In short: as §3

[10] = test system: STEME; experiment: Pre-emergence action against STEME; format: in vivo, Stellaria media; details: Dosage 320 g/ha, pre-emergence
In short: as §1

[11] = test system: AMARE; experiment: Post-emergence action against AMARE; format: in vivo, Amaranthus retroflexus; details: post-emergence, dosage 80 g/ha, visual assessment about 3 weeks after treatment vs untreated controls
In short: as §3

[12] = test system: ECHCG; experiment: Pre-emergence action against ECHCG; format: in vivo, Echinochloa crus-galli; details: pre-emergence, dosage 320 g/ha, scored visually after 3 weeks vs untreated controls
In short: as §1

[13] = test system: ECHCG; experiment: Post-emergence action against ECHCG; format: in vivo, Echinochloa crus-galli; details: post-emergence, dosage 80 g/ha, visual assessment about 3 weeks after treatment vs untreated controls
In short: as §3

[14] = test system: MATIN; experiment: Pre-emergence action against MATIN; format: in vivo, Matricaria inodora; details: Dosage 320 g/ha, pre-emergence
In short: as §1

[15] = test system: POLCO; experiment: Post-emergence action against POLCO; format: in vivo, Polygonum convolvulus; details: post-emergence, dosage 80 g/ha
In short: as §3

[16] = test system: AMARE; experiment: Pre-emergence action against AMARE; format: in vivo, Amaranthus retroflexus; details: pre-emergence, dosage 320 g/ha, scored visually after 3 weeks vs untreated controls
In short: as §1

[17] = test system: VERPE; experiment: Pre-emergence action against VERPE; format: in vivo, Veronica persica; details: Dosage 320 g/ha, pre-emergence
In short: as §1

[18] = test system: VIOTR; experiment: Pre-emergence action against VIOTR; format: in vivo, Viola tricolor; details: Dosage 320 g/ha, pre-emergence
In short: as §1

[19] = test system: ABUTH; experiment: Pre-emergence action against ABUTH; format: in vivo, Abutilon theophrasti; details: pre-emergence, dosage 320 g/ha, scored visually after 3 weeks vs untreated controls
In short: as §1

[20] = test system: AVEFA; experiment: Post-emergence action against AVEFA; format: in vivo, Avena fatua; details: post-emergence, dosage 80 g/ha, visual assessment about 3 weeks after treatment vs untreated controls
Experimental: as §2

[21] = test system: AVEFA; experiment: Pre-emergence action against AVEFA; format: in vivo, Avena fatua; details: dosage 320 g/ha, scored visually after 3 weeks vs untreated controls
In short: as §1

[22] = test system: ALOMY; experiment: Pre-emergence action against ALOMY; format: in vivo, Alopecurus myosuroides; details: dosage 320 g/ha; pre-emergence; scored visually after 3 weeks vs untreated controls; 100% = plants have died, 0% = like control plants
In short: as §1

[23] = test system: PHBPU; experiment: Pre-emergence action against PHBPU; format: in vivo, Pharbitis purpurea; details: Dosage 320 g/ha, pre-emergence
In short: as §1

[24] = test system: CYPES; experiment: Post-emergence action against CYPES; format: in vivo, Cyperus esculentus; details: post-emergence, dosage 80 g/ha, visual assessment about 3 weeks after treatment vs untreated controls
In short: as §3

[25] = test system: MATIN; experiment: Post-emergence action against MATIN; format: in vivo, Matricaria inodora; details: post-emergence, dosage 80 g/ha, visual assessment about 3 weeks after treatment vs untreated controls
In short: as §3

[26] = test system: VERPE; experiment: Post-emergence action against VERPE; format: in vivo, Veronica persica; details: dosage 80 g/ha
In short: as §3

SMILES	SETVI (Table B8, pre-emergence herbicidal activity) [1] [%]	Post-emergence action against ALOMY [3] [%]	Post-emergence action against SETVI (herbicidal action in percent) [4] [%]	Post-emergence action against ABUTH (herbicidal action in percent) [5] [%]	Pre-emergence action against CYPES (herbicidal activity) [6] [%]	Post-emergence action against PHBPU [7]	Post-emergence action against STEME [8]	Post-emergence action against VIOTR [9]	Pre-emergence action against STEME [10] [%]	Post-emergence action against AMARE (herbicidal action in percent) [11] [%]	Pre-emergence action against ECHCG (herbicidal activity) [12] [%]	Post-emergence action against ECHCG (herbicidal action in percent) [13] [%]	Pre-emergence action against MATIN [14] [%]	Pre-emergence action against AMARE (herbicidal activity) [16] [%]	Pre-emergence action against VERPE [17] [%]	Pre-emergence action against VIOTR [18] [%]	Pre-emergence action against ABUTH (herbicidal activity) [19] [%]	other results
CCn1nnnc1NC(=O)c1ccc(C(F)(F)F)c(C(=O)CCl)c1Cl [2-145]	100	80	100	100	100	100	100	100	100	100	90	100	100	100	100	100	100	Pre-emergence action against POLCO [2]: 90%; Post-emergence action against POLCO [15]: 80
CCCn1nnnc1NC(=O)c1ccc(S(C)(=O)=O)c(C(=O)C2CC2)c1Cl [3-129]	100	90	100	90	90	100	100	100	100	90	100	100	100	100	100	100	100	Post-emergence action against AVEFA (herbicidal action in percent) [20]: 90%; Pre-emergence action against AVEFA (herbicidal activity) [21]: 100%; Pre-emergence action against ALOMY (herbicidal activity in percent) [22]: 90%; Pre-emergence action against PHBPU [23]: 90%; Post-emergence action against CYPES (herbicidal action in percent) [24]: 80%; Post-emergence action against MATIN (herbicidal action in percent) [25]: 100%; Post-emergence action against VERPE [26]: 100
